From PMC9147323, “Phytochemical content, especially spermidine derivatives, presenting antioxidant and antilipoxygenase activities in Thai bee pollens” (PeerJ, 2022)
Several values for one entry are separate records, joined by “and”; a condition that tells them apart may be missing. Equal values may be shown once. Marks after values point to notes of the source that are not given here.

Legend:
[1] = DPPH free radical scavenging activity assay; conditions: mean ± 1 SD
Method: The potential of the partitioned extracts was determined as previously described ([Khongkarat et al., 2020]). Five different concentrations of each sample were prepared in DMSO. […] The absorbance was measured at a wavelength of 517 nm ([…]) using a microplate reader. Ascorbic acid (vitamin C) was used as the standard reference. Each assay was performed in triplicate. The free radical scavenging activity was calculated from Eq. (1): (1) % DPPH radical scavenging activity=A-B/A×100, where A is the […] the negative control and B is the […] of the treatment.

[2] = ABTS radical scavenging activity / Trolox equivalent antioxidant capacity (TEAC); conditions: for ABTS EC50: mean ± 1 SD; for ABTS (µmol TE/g): fractions after SiG60-CC and HPLC, mean ± 1SD
Method: The TEAC assay followed the described method ([Suriyatem et al., 2017]). The stock ABTS^•+ solution was prepared by reacting 7 mM ABTS solution with 2.45 mM potassium persulphate solution in distilled water at a 1:1 (v/v) ratio in the dark at room temperature for 16 h before use. The working ABTS^•+ solution was prepared by diluting the stock ABTS^•+ solution (one mL) with ethanol (35 mL) to get an absorbance at 734 nm (A734) of 0.700 ± 0.025. […] The percentage of inhibition was calculated according to Eq. (2), (2) % ABTS radical scavenging activity=A−B/A×100, where A is the A734of the negative control and B is the A734of the treatment.

[3] = Ferric reducing antioxidant power (FRAP); conditions: fractions after SiG60-CC and HPLC; mean ± 1SD
Method: The FRAP assay was performed as previously described ([Sun et al., 2017]). The FRAP reagent was freshly prepared by mixing 100 mL of 300 mM acetate buffer (pH 3.6), 10 mL of 10 mM 2,4,6-tris(2pyridyl)-s-triazine solution in 40 mM hydrochloric acid, and 10 mL of 20 mM ferric chloride solution. Later, 100 µL of the sample at a desired concentration was added to three mL of the FRAP reagent and incubated at 37 °C in a water bath for 6 min. The absorbance was measured at a wavelength of 593 nm. Aqueous solutions of ferrous sulfate (0–2,000 µM) were used to establish the standard graph and the reducing capacity was expressed as µmole of Fe^2+/g extract. Each assay was performed in triplicate.

[4] = molecular target: T1, LOX from soybean (Glycine max, UniProt P08170); experiment: In vitro LOXI activity; conditions: mean ± 1 SD
T1 sequence (P08170 1-839): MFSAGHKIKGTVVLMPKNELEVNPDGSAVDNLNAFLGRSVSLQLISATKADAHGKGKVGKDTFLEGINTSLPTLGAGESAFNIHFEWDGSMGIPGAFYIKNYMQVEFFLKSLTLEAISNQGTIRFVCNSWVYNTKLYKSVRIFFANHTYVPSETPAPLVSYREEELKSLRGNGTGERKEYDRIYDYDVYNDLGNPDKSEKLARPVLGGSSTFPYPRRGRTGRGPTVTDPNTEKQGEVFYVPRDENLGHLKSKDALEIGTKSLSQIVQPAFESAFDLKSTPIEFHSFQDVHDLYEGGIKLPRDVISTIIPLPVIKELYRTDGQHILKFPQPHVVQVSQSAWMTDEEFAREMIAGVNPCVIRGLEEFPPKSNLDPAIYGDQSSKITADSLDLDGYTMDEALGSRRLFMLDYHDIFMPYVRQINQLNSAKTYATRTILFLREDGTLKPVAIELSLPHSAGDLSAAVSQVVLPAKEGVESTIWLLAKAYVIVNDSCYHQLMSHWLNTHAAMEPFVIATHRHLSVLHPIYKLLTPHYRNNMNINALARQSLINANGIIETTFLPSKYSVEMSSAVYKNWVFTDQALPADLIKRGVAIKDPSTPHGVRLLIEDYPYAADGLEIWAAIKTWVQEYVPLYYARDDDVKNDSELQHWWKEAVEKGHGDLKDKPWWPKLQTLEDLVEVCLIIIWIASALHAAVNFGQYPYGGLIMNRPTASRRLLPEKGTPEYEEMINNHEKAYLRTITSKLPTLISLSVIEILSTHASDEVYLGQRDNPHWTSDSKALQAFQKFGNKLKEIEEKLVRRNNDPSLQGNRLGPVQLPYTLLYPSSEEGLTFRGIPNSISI

Structure (SMILES) | DPPH EC50 [1] | DPPH EC50 ([1]; listed as ascorbic acid) [µg/mL] | ABTS EC50 [2] | ABTS EC50 ([2]; listed as ascorbic acid) [µg/mL] | ABTS (µmol TE/g) [2] | FRAP (µmol Fe^2+/g) [3] | LOXI IC50 [4]
O=C1O[C@H]([C@@H](O)CO)C(O)=C1O [Ascorbic acid, reference compound] | 68.00 ± 1.13^a µg/mL and 68.00 ± 1.13^b µg/mL | 68.00 ± 1.13 | 44.54 ± 0.19^a µg/mL and 44.54 ± 0.19^c µg/mL and 44.54 ± 0.19^b µg/mL | 44.54 ± 0.19 |  |  | 
COc1cc(C=CC(=O)NCCCCN(CCCNC(=O)C=Cc2ccc(O)c(OC)c2)C(=O)C=Cc2ccc(O)c(OC)c2)ccc1O [DCMMBP3-1, N^1, N^5, N^10-triferuloyl spermidine] | 53.05 ± 2.60^a µg/mL |  | 25.38 ± 0.67^a µg/mL |  | 2,527.63 ± 7.99^a µmol TE/g | 3,477.33 ± 52.07^a µmol Fe^2+/g | 11.31 ± 0.46^a µg/mL
COc1cc(/C=C/C(=O)NCCCCN(CCCNC(=O)/C=C/c2ccc(O)c(OC)c2)C(=O)/C=C/c2ccc(O)c(OC)c2)ccc1O [DCMMBP3-2, N^1, N^5, N^10-tri-(E, E, E)-feruloyl spermidine] | 57.7 ± 2.77^a µg/mL |  | 28.29 ± 1.05^b µg/mL |  | 2,339.16 ± 34.62^b µmol TE/g | 3,091.78 ± 44.48^b µmol Fe^2+/g | 11.57 ± 0.93^a µg/mL
